Test results: article PMC9150179, “Clerodane Diterpenes from Casearia corymbosa as Allosteric GABAA Receptor Modulators” (Journal of Natural Products, 2022)

Experiments:
[1] = target: GABAA receptor with the α1β2γ2 subunit composition (Homo sapiens, UniProt P14867+P18507+P47870); experiment: FLIPR assay on CHO cells stably expressing GABAA receptors; type: cell-based; settings: for % activation at single concentration: 20 μM compound, 200 μM GABA = 100%
Protocol: Chinese hamster ovary (CHO) cells stably expressing the GABAA receptor with the α1β2γ2 subunit composition were passaged following an established protocol.[15],[16] The Chinese hamster ovary (CHO) cell line stably expressing the α1β2γ2 GABAA receptor subtype was cloned by B’SYS. Cells were cultured in a DMEM F-12 nutrient mixture supplemented with 10% FBS and 1% penicillin/streptomycin, under antibiotic pressure with 200 μg/mL of hygromycin B, 5 μg/mL of puromycin, and 100 μg/mL of zeocin. Cells were incubated in humidified air at 37 °C and 5% CO2, until 80–90% cell confluency. The passage numbers used in this study were from 10 to 30. Briefly, cells of ca. 80–90% confluency were seeded in a 96-well black-walled plate at a density of 60 000 cells/well in 100 μL of culture medium. The plate was incubated in humidified air at 37 °C and 5% CO2 for 24 h to allow cells to adhere. Then, 100 μL of FLIPR red dye solution (10.4 mL of assay buffer and one vial of red FLIPR assay reagent) was added to each well. The plate was further incubated for 30 min to allow the dye to penetrate into the cell membrane (assay plate). During the incubation time, a compound plate (clear 96-well plate) with controls, extracts, microfractions, compounds, and blanks was prepared (200 μL/well). Test solutions of extracts, microfractions, and compounds were prepared in buffer (consisting of 10% HBSS and 2% HEPES in sterilized H2O) and DMSO.
For the extract library screening, 2 μL of a 10 mg/mL DMSO stock solution of the extracts was added to 198 μL of buffer and transferred into the compound plate. The final test concentration for extracts was 20 μg/mL, with a final DMSO concentration in the assay of 0.1%. For extracts tested, active (>35% potentiation) serial dilutions were prepared from the stock solution to obtain final test concentrations of 0.16, 0.31, 0.63, 1.25, 2.50, 5.00, 10.00, and 20.00 μg/mL.
To test the pure compounds, stock solutions of 20 mM in DMSO were prepared. Compounds were assayed at a final concentration range of 0.16 to 20.00 μM (8× dilution series) or alternatively from 0.01 to 20.00 μM (12× dilution series). Aliquots of 200 μL from each dilution were transferred into wells of the compound plate and tested.
A series of controls was included in each assay. GABA at 200 μM was used to represent 100% activation of the receptor, while GABA at 2 μM represented the minimum activation (EC10). The positive control was diazepam at 20 μM in the presence of GABA at 2 μM, and buffer with 0.1% DMSO was used as a blank. GABA solutions (2 and 200 μM) were prepared from a 100 mM stock solution. In order to achieve a final test concentration of 20 μM diazepam in the assay plate, a 100 μM working solution was prepared from a stock solution (1 mg/mL in MeOH).
All test solutions were placed in the appropriate position in the compound plate (200 μL). Right after the final incubation period of the assay plate, the compound and assay plates were placed into a FlexStation 3 (Molecular Devices). The FlexStation parameters used in this study were as previously published.[14] Fluorescence was recorded for 500 s. For the first 25 s, the background fluorescence of the assay plate was measured (background signal). At 25 s, 50 μL of the test solutions (dilutions from compounds, extracts, microfractions, diazepam, and blanks) was transferred from the compound plate into the assay plate. The fluorescence was then recorded until 295 s. At 295 s, 25 μL of the GABA solutions (final concentration of 2 or 200 μM) was transferred into each well of the assay plate, and fluorescence was recorded until 500 s. The change in fluorescence intensity measured between 270 and 330 s was used for the calculation of percentage activation.

GABAA receptors = test system: GABAA receptors; parameters: method as in PMID 17585957; settings: Xenopus oocyte assay; cited from earlier work
GABAA receptors α1β2γ2S = target: T1, GABAA receptors α1β2γ2S (Homo sapiens, UniProt P14867+P18507+P47870); experiment: Two-microelectrode voltage clamp assay with Xenopus laevis oocytes (α1β2γ2S); type: cell-based
T1 construct: expressed in transfected cells; host or cells: Xenopus laevis oocytes, cRNA injection
Protocol: (§1) Recombinant GABAA receptors (α1β2γ2s and α1β2) were expressed in X. laevis oocytes by cRNA injection, as previously described.[37] Two-microelectrode voltage clamp measurements were performed between days 1 and 5 after injection of cRNA of the respective subunits, using a TURBO TEC 03X amplifier (npi Electronic) at a holding potential of −70 mV and pCLAMP 10 data acquisition software (Molecular Devices). The bath solution contained 90 mM NaCl, 1 mM KCl, 1 mM MgCl2, 1 mM CaCl2, and 5 mM HEPES (pH 7.4), and the electrode filling solution contained 2 M KCl. Test solutions (100 μL) were applied to the oocytes at a speed of 300 μL/sec by means of the ScreeningTool (npi electronic) automated fast perfusion system. GABA EC3–7 was determined through a concentration–response experiment with GABA. A stock solution of compound 8 (100 mM) in DMSO was diluted with a bath solution containing GABA EC3–7 to obtain appropriate working solutions according to a validated protocol. Enhancement of the IGABA was defined as (I(GABA+Comp)/IGABA) – 1, where I(GABA+Comp) is the current response in the presence of a given compound, and IGABA is the control of the GABA-induced chloride current. Emax reflects the maximal IGABA enhancement. Concentration–response curves were generated, and the data were fitted by nonlinear regression analysis using Origin Software (OriginLab Corporation, USA) and are given as the means ± SEM of at least three oocytes from ≥2 batches. Diazepam (Sigma) and flumazenil (Sigma-Aldrich) were used as positive controls at 2 μM.

GABAA receptors α1β2 = target: T2, GABAA receptors α1β2 (Homo sapiens, UniProt P14867+P47870); experiment: Two-microelectrode voltage clamp assay with Xenopus laevis oocytes (α1β2); type: cell-based; settings: α1β2, in the presence of GABA EC3–7, n = 3
T2 construct: expressed in transfected cells; host or cells: Xenopus laevis oocytes, cRNA injection
T2 sequence (P14867 28-456): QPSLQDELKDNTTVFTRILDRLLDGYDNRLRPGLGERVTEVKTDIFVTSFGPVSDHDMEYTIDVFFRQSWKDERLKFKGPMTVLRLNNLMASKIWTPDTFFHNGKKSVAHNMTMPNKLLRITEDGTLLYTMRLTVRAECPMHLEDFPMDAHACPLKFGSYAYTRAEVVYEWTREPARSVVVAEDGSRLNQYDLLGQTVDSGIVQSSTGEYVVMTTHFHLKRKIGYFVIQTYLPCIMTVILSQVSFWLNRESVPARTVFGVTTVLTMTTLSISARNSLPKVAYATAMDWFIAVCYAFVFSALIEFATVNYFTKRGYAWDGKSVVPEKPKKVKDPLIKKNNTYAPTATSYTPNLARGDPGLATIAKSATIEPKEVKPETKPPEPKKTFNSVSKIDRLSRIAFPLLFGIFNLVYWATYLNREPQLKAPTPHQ
T2 sequence (P47870 25-512 limits assumed): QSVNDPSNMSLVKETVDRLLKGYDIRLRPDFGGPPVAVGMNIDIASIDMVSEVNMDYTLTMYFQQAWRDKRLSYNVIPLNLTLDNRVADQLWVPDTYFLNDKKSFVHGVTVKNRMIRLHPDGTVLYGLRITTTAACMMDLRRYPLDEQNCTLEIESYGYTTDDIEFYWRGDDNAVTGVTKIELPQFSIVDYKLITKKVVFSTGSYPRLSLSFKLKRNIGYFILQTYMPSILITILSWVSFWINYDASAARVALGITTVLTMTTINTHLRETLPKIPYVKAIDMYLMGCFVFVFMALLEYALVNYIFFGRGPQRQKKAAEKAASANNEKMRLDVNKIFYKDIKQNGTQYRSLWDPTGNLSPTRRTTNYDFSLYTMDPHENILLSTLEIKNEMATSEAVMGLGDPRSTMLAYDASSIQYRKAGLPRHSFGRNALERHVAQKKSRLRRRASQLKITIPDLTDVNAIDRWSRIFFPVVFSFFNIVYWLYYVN
Protocol: as §1, with “Concentration–response curves were generated, and the data were fitted by nonlinear regression analysis using Origin Software (OriginLab Corporation, USA) and are given as the means ± SEM of at least three oocytes from ≥2 batches. Diazepam (Sigma) and flumazenil (Sigma-Aldrich) were used as positive controls at 2 μM.” left out

Chain of GABAA receptor with the α1β2γ2 subunit composition (P18507 40-475, one chain of several): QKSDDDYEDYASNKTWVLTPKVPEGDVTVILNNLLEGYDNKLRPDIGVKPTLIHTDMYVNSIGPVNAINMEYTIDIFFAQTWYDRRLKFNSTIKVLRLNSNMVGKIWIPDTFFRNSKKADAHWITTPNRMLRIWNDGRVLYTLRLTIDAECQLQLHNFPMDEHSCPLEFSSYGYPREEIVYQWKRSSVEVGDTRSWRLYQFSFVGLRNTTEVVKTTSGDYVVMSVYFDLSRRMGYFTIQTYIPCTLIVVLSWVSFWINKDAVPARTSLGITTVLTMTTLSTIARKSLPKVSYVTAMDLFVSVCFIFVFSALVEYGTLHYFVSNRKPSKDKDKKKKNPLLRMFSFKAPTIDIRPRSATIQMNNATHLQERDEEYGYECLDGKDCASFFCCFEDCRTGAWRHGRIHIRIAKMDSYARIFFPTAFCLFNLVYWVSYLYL
T1 sequence (P18507 40-467 isoform P18507-1 limits assumed, one chain of several): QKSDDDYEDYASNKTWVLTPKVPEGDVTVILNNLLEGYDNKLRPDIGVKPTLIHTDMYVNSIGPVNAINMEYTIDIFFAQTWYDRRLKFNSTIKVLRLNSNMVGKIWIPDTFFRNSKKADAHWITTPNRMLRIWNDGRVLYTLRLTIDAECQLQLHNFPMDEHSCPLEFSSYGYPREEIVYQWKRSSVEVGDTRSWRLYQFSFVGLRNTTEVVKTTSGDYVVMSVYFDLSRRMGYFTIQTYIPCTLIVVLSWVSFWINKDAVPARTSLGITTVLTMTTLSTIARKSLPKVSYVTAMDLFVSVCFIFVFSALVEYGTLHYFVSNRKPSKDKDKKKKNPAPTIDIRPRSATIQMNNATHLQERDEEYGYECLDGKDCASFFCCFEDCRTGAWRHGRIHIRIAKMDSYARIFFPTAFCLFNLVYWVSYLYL

Which results are given for C=C/C(C)=C/CC1(C)C(C)CC(OC(C)=O)C23C(=CC(OC(C)=O)CC12)C(OC(C)=O)OC3OC(C)=O [Compound 7, (2S,6S,18S,19S)-Tetraacetoxyzuelanin]?
% activation at single concentration ([1]; in the presence of 2 μM GABA): significantly enhanced; EC50 ([1]; in the presence of 2 μM GABA, CHO cells α1β2γ2, read-out: EC50, positive allosteric modulation of the GABA signal): 4.6 µM

Which “% activation at single concentration” value ([1]; in the presence of 2 μM GABA) does the source give for C=C/C(C)=C/C[C@]1(C)[C@H](C)C[C@H](O)[C@]23C(=C[C@H](OC(=O)C(=C)C)C[C@@H]12)[C@@H](OC(C)=O)O[C@H]3OC(C)=O [Compound 4, Corymbotin F] here?
Its value is “no discernible activity”.

With C=C/C(C)=C/C[C@]1(C)[C@H](C)C[C@H](OC)[C@@]2(C=O)C(C=O)=C[C@@H](OC(C)=O)C[C@@H]12 [Compound 5, (5S,8R,9R,10S)-2S-Acetoxy-6S-methoxyclerod-3,12,14-trien-18,19-dial] as the molecule, how does the “% activation at single concentration” value ([1]; in the presence of 2 μM GABA) read?
Its value is about 40%.

With CN1C(=O)CN=C(c2ccccc2)c2cc(Cl)ccc21 [diazepam] as the molecule, how does the “maximal potentiation (Emax)” value (GABAA receptors) read?
The value was about 200%.

For C=C/C(C)=C/C[C@]1(C)[C@H](C)C[C@H](O)[C@@]2(C=O)C(C=O)=C[C@@H](OC(C)=O)C[C@@H]12 [Compound 1, (5S,8R,9R,10S)-2S-Acetoxy-6S-hydroxyclerod-3,12,14-trien-18,19-dial], which “% activation at single concentration” value ([1]; in the presence of 2 μM GABA) is on record?
The value was about 40%.

Which “% activation at single concentration” value ([1]; in the presence of 2 μM GABA) does the source give for C=C/C(C)=C/C[C@]1(C)[C@H](C)C[C@H](O)[C@]23C(=C[C@@H](OC(C)=O)C[C@@H]12)[C@@H](OC(C)=O)O[C@H]3OC(C)=O [Compound 3, Corymbotin D] here?
Its value is “significantly enhanced”.

Which “activation of the GABA signal” value ([1]; concentrations up to 640 mM, in presence of 2 μM GABA) does the source give for CCO [ethanol, reference compound] here?
The value was “no activation”.

For C=C/C(C)=C/C[C@]1(C)[C@H](C)C[C@H](O)[C@]23C(=C[C@H](OC(=O)C(=C)C)C[C@@H]12)[C@@H](OC)O[C@H]3OC(C)=O [Compound 6, (2R)-2-Methylpropenoyloxy-6S-hydroxy-18S-methoxy-19S-acetoxyzuelanin], which “% activation at single concentration” value ([1]; in the presence of 2 μM GABA) is on record?
Its value is “no discernible activity”.

With C=C/C(C)=C/C[C@]1(C)[C@H](C)C[C@H](O)[C@]23C(=C[C@@H](OC(C)=O)C[C@@H]12)[C@@H](OC)O[C@H]3OC(C)=O [Compound 2, Graveospene H] as the molecule, how does the “% activation at single concentration” value ([1]; in the presence of 2 μM GABA) read?
Its value is “no discernible activity”.

With C=C/C(C)=C/C[C@]1(C)[C@H](C)C[C@H](OC)[C@]23C(=C[C@H](OC(=O)CC)C[C@@H]12)[C@@H](OC(C)=O)O[C@H]3OC(C)=O [Compound 9, (2R)-Propanoyloxy-(6R)-methoxy-18R,19S-diacetoxyzuelanin] as the molecule, how does the “% activation at single concentration” value ([1]; in the presence of 2 μM GABA) read?
The value was “no discernible activity”.

With C=C/C(C)=C/C[C@]1(C)[C@H](C)C[C@H](OC)[C@]23C(=C[C@@H](OC(C)=O)C[C@@H]12)[C@@H](OC(C)=O)O[C@H]3OC(C)=O [Compound 8, Corimbotin A] as the molecule, how does the “% activation at single concentration” value ([1]; in the presence of 2 μM GABA) read?
The value was “significantly enhanced”.

And the “activation by 8 in the presence of flumazenil” value ([1]; 8 (5 μM) with flumazenil 0.001–10 μM, 2 μM GABA)?
Its value is “not abrogated”.

What about the combination with allopregnanolone ([1]; 8 (0.5–4.0 μM) with allopregnanolone (0.25 μM), 2 μM GABA) of the same molecule?
Its combination with allopregnanolone is “additive effects”.

And the combination with diazepam ([1]; 8 (0.5–8 μM) with diazepam (2 μM), 2 μM GABA)?
The combination with diazepam was “additive effect”.

And the “potentiation of the GABA signal by etazolate in combination with 8” value ([1]; etazolate (2 μM) with 8 (0.5–8 μM), 2 μM GABA)?
The value was “further increased”.

And the “IGABA stimulation by 8 in the presence of flumazenil” value (GABAA receptors α1β2γ2S; 8 (50 μM), flumazenil (2 μM))?
The value was “not prevented”.

What about the EC50 (GABAA receptors α1β2γ2S; α1β2γ2S, in the presence of GABA EC3–7, n = 3, read-out: EC50, potentiation of GABA-induced chloride currents (IGABA)) of the same molecule?
The EC50 was 43.6 µM.

What about the Emax (GABAA receptors α1β2γ2S; α1β2γ2S, in the presence of GABA EC3–7, n = 3, read-out: Emax, maximal IGABA enhancement) of the same molecule?
Its Emax is 809%.

And the EC50 (GABAA receptors α1β2; read-out: EC50, potentiation of GABA-induced chloride currents (IGABA))?
Its EC50 is 57.6 µM.

What about the Emax (GABAA receptors α1β2; read-out: Emax, maximal IGABA enhancement) of the same molecule?
The Emax was 534%.

For “pregnenolone sulfate [PREGS, reference compound]”, which “effect of PREGS on GABA signal with 8, highest concentration” value ([1]; 8 (10 μM) with PREGS 10 μM, 2 μM GABA) is on record?
Its value is “decrease of the GABA signal”.

And the “effect of PREGS on GABA signal with 8, lower concentrations” value ([1]; 8 (10 μM) with PREGS at lower concentrations (<10 μM), 2 μM GABA)?
The value was “no effect”.

And the “effect on activation by allopregnanolone” value ([1]; allopregnanolone 0.5 μM, PREGS 0.001–100 μM)?
The value was “abrogated”.

Which “effect on potentiation of the GABA signal by diazepam” value ([1]; diazepam 2 μM, flumazenil 0.001–100 μM, concentration-dependent) does the source give for CCOC(=O)c1ncn2c1CN(C)C(=O)c1cc(F)ccc1-2 [flumazenil, reference compound] here?
The value was “abolished”.
